Assays:
TDG [1] = biological target: T1, TDG (Homo sapiens, UniProt Q13569); assay: TDG inhibitory activity of compounds in cells (caC-cmv-firefly luciferase reporter, HEK 293T TDG KO cells transfected with pCDNA4-TDG); format: cell-based; conditions: read-out: Inhibition rate on TDG activity
Method in brief: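 TDG-knockout HEK 293T cells co-transfected with an in vitro Tet1-oxidised, 5caC-modified CMV-firefly reporter, a Renilla control and a TDG (or empty myc) plasmid, then treated with compounds for 72 h at 37°C. Firefly/Renilla ratio gives relative TDG activity inhibition, with activity bins set at 10 μM.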

[2] = system: Lung cancer cell line Calu-1; assay: Inhibition of the growth of Calu-1 cells (CellTiter-Glo, 72 hours); format: cell-based; conditions: Homo sapiens, 72 hours of culturing, read-out: Inhibitory activity on alu-1 cell growth IC50
Method in brief: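 Calu-1 cells in McCoy's 5A with 10% FBS, seeded at 500 cells/well and dosed the next day at 0.1% DMSO final. Viability was read by CellTiter-Glo 2.0 luminescence after 72 h at 37° C. Activity class: ++ for IC50 ≤5 μM, + for IC50 >5 μM.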

TDG [3] = biological target: T1, TDG; assay: Inhibition of TDG mismatch repair activity (fluorescent G·U double-stranded DNA probe T1-T2); format: biochemical; conditions: TDG 100 nM/L, preincubated with compound 37° C. 30 minutes; probe 30 nM; read-out: Inhibitory activity on TDG mismatch repair IC50
Method in brief: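 TDG (100 nM/L) preincubated with compound 30 min at 37 °C in 20 mM HEPES pH7.5, 100 mM NaCl, 0.2 mM EDTA, 2.5 mM MgCl2, then 30 nM FAM/biotin G·U probe for 30 min at 25 °C. After streptavidin bead capture and 200 mM NaOH, supernatant fluorescence read at 485/520 nm; IC50 determined.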

T1 sequence (Q13569 whole entry): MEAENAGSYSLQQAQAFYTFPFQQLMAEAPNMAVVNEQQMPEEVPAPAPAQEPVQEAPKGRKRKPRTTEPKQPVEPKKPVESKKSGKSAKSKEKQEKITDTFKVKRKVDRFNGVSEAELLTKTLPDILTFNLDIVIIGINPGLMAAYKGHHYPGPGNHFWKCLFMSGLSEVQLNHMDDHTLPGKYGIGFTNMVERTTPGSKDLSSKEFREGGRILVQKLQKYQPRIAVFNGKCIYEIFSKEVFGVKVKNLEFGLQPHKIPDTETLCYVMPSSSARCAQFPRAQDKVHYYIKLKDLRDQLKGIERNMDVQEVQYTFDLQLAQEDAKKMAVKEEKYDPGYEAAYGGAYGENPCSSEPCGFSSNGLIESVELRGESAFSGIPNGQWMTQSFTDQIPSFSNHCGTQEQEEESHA

SMILES	inhibition at 10 µM (TDG [1])	IC50 [2]	IC50 (TDG [3])
O=C(CCN1C(=O)CSC1=S)c1ccc2c(c1)OCCO2 [Compound 22, 3-(3-(2,3-dihydrobenzo[b][1,4]dioxin-6-yl)-3-oxopropyl)-2-thiothiazolidine-4-one]	< 25%	> 5 µM	> 5 µM
O=C(CCN1CCC(c2ccc(F)c(O)c2)C1)c1ccc2c(c1)OCCO2 (stereo not drawn) [Compound 52, 1-(2,3-dihydrobenzo[b][1,4]dioxin-6-yl)-3-(3-(4-fluoro-3-hydroxyphenyl)pyrrolidine-1-yl)propan-1-one]	< 25%	≤ 5 µM	≤ 5 µM
O=C(CN1Cc2ccccc2C1)c1ccc2c(c1)OCCO2 [Compound 32, 1-(2,3-dihydrobenzo[b][1,4]dioxin-6-yl)-2-(isoindolin-2-yl)ethan-1-one]	< 25%	> 5 µM	> 5 µM

From patent US20220213070A1, “COMPOUNDS INHIBITING TDG ACTIVITY” (EPITAS BIOSCIENCES (SHANGHAI) CO., LTD., priority 2019, published 2022)
